{"source": "patent US9801901B2", "about": "“Alginate oligomers for use in overcoming multidrug resistance in bacteria” (priority 2009, dated 2017)", "test_system": "V23 1322 Burkholderia cepacia", "assay": "MIC assay, CAMHB with alginate oligomer, no visible growth", "format": "cell-based", "conditions": "Table 5, V23 MDR Burk cep", "note": "Marks after values point to notes of the source that are not given here."}
{"smiles": "CC1(C)C[C@@H]1C(=O)N/C(=C\\CCCCSC[C@H](N)C(=O)O)C(=O)O", "note": "[Primaxin, Imipenem/cilastatin]", "values": [{"measurement": "MIC", "setting": "Burkholderia cepacia, OligoCF-5/20 0G", "value": 32, "unit": "µg/mL"}, {"measurement": "MIC", "setting": "OligoCF-5/20 +2% G", "value": 32, "unit": "µg/mL"}, {"measurement": "MIC", "setting": "OligoCF-5/20 +6% G", "value": 32, "unit": "µg/mL"}, {"measurement": "MIC", "setting": "OligoCF-5/20 +10% G", "value": "8^† μg/ml"}]}
